Laboratory results reported in US20160378909A1, “PROCESS FOR IDENTIFYING CULTURE CONDITIONS FOR A CELL OR ORGANISM” (GLAXOSMITHKLINE BIOLOGICALS SA, priority 2013, published 2016).
Read-outs that look alike come from different tables or passages of the source.

System: Bordetella pertussis
Experiment: microbe, parasite or virus in culture
Type: cell-based
Method: Cells were harvested by centrifugation, washed twice with NaCl 0.9% (w/v), and resuspended in fresh medium (de novo minimal CDM; see composition in Table 1) at a theoretical OD650 nm of 0.5, as calculated from the OD650 nm of the culture before harvest. 20 μl of this cell suspension were used to inoculate each well of a 96-well microtiter plate filled with 180 μl of de novo minimal CDM. Only the inner wells of the plate were used for cultures, in order to minimize evaporation, and two controls were included, in which the supplement solution was replaced with water.
The plate was then incubated for 7 days at 35° C. in a Biotek Synergy H1 reader with constant shaking, and growth was automatically monitored every 10 minutes as OD650 nm.
The relative growth yield and growth rate for each supplement was then averaged over the three independent repeats, and the standard deviation was calculated.

[1] = Bordetella pertussis, 168 h, read-out: Relative yield Average, 2 mM in medium, max OD650 nm relative to water controls
[2] = Bordetella pertussis, 168 h, read-out: Relative yield Average, 20 mM in medium, max OD650 nm relative to water controls
[3] = Bordetella pertussis, read-out: Relative growth rate Average, 2 mM in medium, first generation, relative to water controls
[4] = Bordetella pertussis, read-out: Relative growth rate Average, 20 mM in medium, first generation, relative to water controls
[5] = Bordetella pertussis, 168 h, read-out: Relative yield Average, 1.33 mM in medium, max OD650 nm relative to water controls
[6] = Bordetella pertussis, read-out: Relative growth rate Average, 1.33 mM in medium, first generation, relative to water controls

Question: For `N[C@@H](CC(=O)O)C(=O)O` [L-Aspartate], which “Relative growth rate Average” value (0.225 mM in medium, first generation, relative to water controls) is on record?
Answer: 96.87%

Question: What about the “Relative yield Average” value (0.225 mM in medium, max OD650 nm relative to water controls) of the same compound?
Answer: 106.30%

Question: What about the “Relative growth rate Average” value (2.25 mM in medium, first generation, relative to water controls) of the same compound?
Answer: 72.32%

Question: And the “Relative yield Average” value (2.25 mM in medium, max OD650 nm relative to water controls)?
Answer: 99.74%

Question: `N[C@@H](CS)C(=O)O` [L-Cysteine] was tested. Which activity at 250 µM (Bordetella pertussis, 168 h, read-out: Relative yield Average, 0.25 mM in medium, max OD650 nm relative to water controls) did it give?
Answer: 158%

Question: And the activity at 2000 µM [1]?
Answer: > 105%

Question: What about the activity at 2500 µM (Bordetella pertussis, 168 h, read-out: Relative yield Average, 2.5 mM in medium, max OD650 nm relative to water controls) of the same compound?
Answer: 212%

Question: What about the activity at 20000 µM [2] of the same compound?
Answer: > 105%

Question: And the activity at 250 µM (Bordetella pertussis, read-out: Relative growth rate Average, 0.25 mM in medium, first generation, relative to water controls)?
Answer: 155%

Question: And the activity at 2000 µM [3]?
Answer: > 105%

Question: And the activity at 2500 µM (Bordetella pertussis, read-out: Relative growth rate Average, 2.5 mM in medium, first generation, relative to water controls)?
Answer: 146%

Question: And the activity at 20000 µM [4]?
Answer: > 105%

Question: What does the source list for `NC(=O)CC[C@H](N)C(=O)O` [L-Glutamine]?
Answer: activity at 2000 µM [1]: 95 to 105%; activity at 20000 µM [2]: > 105%; activity at 2000 µM [3]: 95 to 105%; activity at 20000 µM [4]: < 95%

Question: For `N[C@@H](Cc1c[nH]cn1)C(=O)O` [L-Histidine], which activity at 2000 µM [1] is on record?
Answer: 95 to 105%

Question: What about the activity at 20000 µM [2] of the same compound?
Answer: < 95%

Question: And the activity at 2000 µM [3]?
Answer: > 105%

Question: And the activity at 20000 µM [4]?
Answer: > 105%

Question: Which activity at 2000 µM [1] does the source give for `CC[C@H](C)[C@H](N)C(=O)O` [L-Isoleucine] here?
Answer: < 95%

Question: And the activity at 20000 µM [2]?
Answer: < 95%

Question: And the activity at 2000 µM [3]?
Answer: < 95%

Question: What about the “Effect on growth rate in comparison to a minimally identified medium” value (no concentration stated) of the same compound?
Answer: negative effect

Question: `CC(C)C[C@H](N)C(=O)O` [L-Leucine] was tested. Which activity at 1330 µM [5] did it give?
Answer: 95 to 105%

Question: What about the activity at 1330 µM [6] of the same compound?
Answer: 95 to 105%

Question: What does the source list for `Cl.NCCCC[C@H](N)C(=O)O` [L-Lysine HCl]?
Answer: activity at 2000 µM [1]: > 105%; activity at 2000 µM [3]: < 95%

Question: `CSCC[C@H](N)C(=O)O` [L-Methionine] was tested. Which activity at 20000 µM [2] did it give?
Answer: > 105%

Question: And the activity at 2000 µM [3]?
Answer: > 105%

Question: What about the activity at 20000 µM [4] of the same compound?
Answer: > 105%

Question: `N[C@@H](Cc1ccccc1)C(=O)O` [L-Phenylalanine] was tested. Which activity at 1330 µM [5] did it give?
Answer: < 95%

Question: What about the activity at 1330 µM [6] of the same compound?
Answer: < 95%

Question: `O=C(O)[C@@H]1CCCN1` [L-Proline] was tested. Which activity at 2000 µM [1] did it give?
Answer: 95 to 105%

Question: And the activity at 20000 µM [2]?
Answer: > 105%

Question: Which results are given for `N[C@@H](CO)C(=O)O` [L-Serine]?
Answer: activity at 2000 µM [1]: < 95%; activity at 20000 µM [2]: < 95%; activity at 2000 µM [3]: 95 to 105%

Question: For `C[C@@H](O)[C@H](N)C(=O)O` [L-Threonine], which activity at 2000 µM [1] is on record?
Answer: 95 to 105%

Question: And the activity at 20000 µM [2]?
Answer: < 95%

Question: And the activity at 2000 µM [3]?
Answer: < 95%

Question: With `N[C@@H](Cc1c[nH]c2ccccc12)C(=O)O` [L-Tryptophane] as the compound, how does the activity at 518 µM (Bordetella pertussis, 168 h, read-out: Relative yield Average, 0.518 mM in medium, max OD650 nm relative to water controls) read?
Answer: > 105%

Question: And the activity at 5180 µM (Bordetella pertussis, 168 h, read-out: Relative yield Average, 5.18 mM in medium, max OD650 nm relative to water controls)?
Answer: 95 to 105%

Question: And the activity at 518 µM (Bordetella pertussis, read-out: Relative growth rate Average, 0.518 mM in medium, first generation, relative to water controls)?
Answer: 95 to 105%

Question: For `N[C@@H](Cc1ccc(O)cc1)C(=O)O` [L-Tyrosine], which activity at 22.1 µM (Bordetella pertussis, 168 h, read-out: Relative yield Average, 0.0221 mM in medium, max OD650 nm relative to water controls) is on record?
Answer: 95 to 105%

Question: What about the activity at 221 µM (Bordetella pertussis, 168 h, read-out: Relative yield Average, 0.221 mM in medium, max OD650 nm relative to water controls) of the same compound?
Answer: 95 to 105%

Question: What about the activity at 22.1 µM (Bordetella pertussis, read-out: Relative growth rate Average, 0.0221 mM in medium, first generation, relative to water controls) of the same compound?
Answer: 95 to 105%

Question: What about the activity at 221 µM (Bordetella pertussis, read-out: Relative growth rate Average, 0.221 mM in medium, first generation, relative to water controls) of the same compound?
Answer: < 95%

Question: With `CC(C)[C@H](N)C(=O)O` [L-Valine] as the compound, how does the activity at 2000 µM [1] read?
Answer: 95 to 105%

Question: And the activity at 2000 µM [3]?
Answer: < 95%

Question: For `O.O.O.O.O.O.[Cl-].[Cl-].[Mg+2]` [MgCl2•6H2O], which “Relative growth rate Average” value (1 mM in medium, first generation, relative to water controls) is on record?
Answer: 99.38%

Question: And the “Relative yield Average” value (1 mM in medium, max OD650 nm relative to water controls)?
Answer: 102.26%

Question: And the “Relative growth rate Average” value (10 mM in medium, first generation, relative to water controls)?
Answer: 106.39%

Question: What about the “Relative yield Average” value (10 mM in medium, max OD650 nm relative to water controls) of the same compound?
Answer: 222.99%
